Measured values from US7858663B1, “Physical and chemical properties of thyroid hormone organic acid addition salts” (Pisgah Laboratories, Inc., priority 2007, dated 2010).

Key:
Assay type in all cases: physicochemical
[1] = Forced degradation as suspension in USP water at about 60° C., HPLC
Procedure: (§1) Chromatographic analyses were conducted on a Waters Breeze system equipped with a Waters 1525 Binary HPLC pump, 717plus Autosampler, 2487 Dual I Absorbance Detector and column heater employing a Zorbax Extend-C-18 Column (4.6×250 mm; 5 micron, 80 A). Separation occurred using a linear gradient elution according to the following table wherein eluant A consisted of 0.1% TFA in water and eluant B consisted of 0.1% TFA in acetonitrile.
(§2) Injection samples were prepared in water/1N NaOH/acetonitrile diluent (59:1:40) with analyte peaks detected at 230 nm. Analyte peaks associated with the pamoate salts were assayed against standard solutions prepared from liothyronine and levothryroxine.
(§3) The HPLC methodology was applied to freshly prepared samples of T3-pamoate and T4 pamoate and the resulting chromatograms compared with chromatograms of the materials after a four-year real-time storage under ambient laboratory conditions. Further, the pamoate salts were evaluated under forced degradation conditions to evaluate the effects of heat and moisture on the salts' chemical and thermal stability. Blank injections of the sample diluent were obtained at each time interval to determine if minor response differences observed were attributable to the diluent and the chromatographic system (eluant) or to real impurities within either liothyronine pamoate or levothyroxine pamoate.
To accelerate the potential degradation of levothyroxine pamoate and liothyronine pamoate, samples of each were individually placed in at least an 100 fold excess by weight USP water to form a suspension. The mixture was not degassed and heating was initiated to about 60° C. Multiple samples at each time point were obtained and analyzed from the mixture to assure a representative sample was obtained. FIG. 16 is an HPLC chromatogram of levothyroxine pamoate after subjection to this forced degradation condition for about 98 hours and is indicative of the unexpected stability associated with the organic acid addition salt. […]

Water solubility = test: Water solubility
[2] = Real-time storage stability under ambient laboratory conditions, HPLC comparison with freshly prepared material
Procedure: as §1, §2
as §3, with “pamoate. […]” for “pamoate.”

Hygroscopicity = details: compared with sodium or alkali metal salts of the thyroid hormones

Row | Compound | HPLC chromatogram after forced degradation compared with freshly prepared material ([1]; suspension in at least 100 fold excess USP water, not degassed, about 60° C., about 98 hours) | Water solubility (Water solubility) | HPLC chromatogram after extended storage compared with freshly prepared material ([2]; about four years, ambient laboratory conditions 18-25° C., amber glass jars, detection 230 nm) | Hygroscopicity (Hygroscopicity) | Decomposition under forced degradation (late eluting peak, retention time about 25-26 minutes) ([1]; aqueous environment at 60° C. for 148 hours) | Amount of degradation impurity at retention time 25-26 minutes ([1]; forced degradation, aqueous environment at 60° C. for 148 hours) | Amount of degradation impurity at retention time 25-26 minutes ([2]; extended storage, about four years at ambient laboratory conditions)
1 | levothyroxine pamoate | essentially identical | insoluble | essentially identical |  |  |  | 
2 | N[C@@H](Cc1cc(I)c(Oc2cc(I)c(O)c(I)c2)c(I)c1)C(=O)O [levothyroxine sodium, reference compound] |  | water-soluble |  | sufficient hygroscopic characteristics |  |  | 
3 | N[C@@H](Cc1cc(I)c(Oc2ccc(O)c(I)c2)c(I)c1)C(=O)O.N[C@@H](Cc1cc(I)c(Oc2ccc(O)c(I)c2)c(I)c1)C(=O)O.O=C(O)c1cc2ccccc2c(Cc2c(O)c(C(=O)O)cc3ccccc23)c1O [liothyronine pamoate] |  |  |  |  | exhibited some decomposition | significant | only a minor amount of the impurity
